Series [1] has as its system newly transformed schistosomula (NTS). As to the kind of experiment: NTS viability phenotypic screening, 72 h. Particulars: for IC50: Schistosoma mansoni, read-out: IC50 (NTS viability).
Experimental: For NTS and adult worms, transparent flat-bottom 96- and 24-well plates were used, respectively (Sarstedt, Switzerland). For juvenile worms, 48-well plates were used with 3–6 worms per plate and RPMI medium with 5% FCS and 1% penicillin/streptomycin. Compounds were initially tested at 20 and 10 μM in triplicate on NTS and repeated once; each well contained 30–40 NTS. Phenotypic reference points such as motility, morphology, and granularity were used to score incubated parasites’ overall viability (scores from 0 to 3). […] Identified hits from the NTS screening were tested on adult worms. […] The experiment was conducted in duplicate and repeated; standard deviations were calculated from two wells. […] For all in vitro assays, negative controls (DMSO at the highest tested concentration) were included.
The test system of series [2] is human recombinant LSD1-CoREST enzymatic complex. The note with it: Table S1, cited from earlier work.
In series [3] the test system is adult worms. As to the kind of experiment: Adult worm viability phenotypic assay, 72 h. Particulars: Schistosoma mansoni, read-out: IC50 (adult worm viability).
A short description of series [4]: MTT cytotoxicity in MRC-5 cells. The series is classed as cell-based. The note with it: human, MRC-5 lung diploid fibroblast cells; for viability at 72 h, 5 µM / viability at 72 h, 10 µM / viability at 72 h, 25 µM / viability at 72 h, 50 µM: read-out: percentage of viability, 72 h; for IC50 at 72 h: read-out: IC50 (cell viability). The procedure: (§1) The MTT method was used to evaluate cell viability after 72 h of treatment.
(§2) Human commercial lung diploid fibroblasts (MRC-5), and diploid retinal epithelium cells (RPE) were obtained from the American Type Culture Collection (ATCC) and kindly provided by Dr Francesca Degrassi (CNR IBPM) and maintained in minimal essential medium or DMEM-F12 medium supplemented with fetal calf serum, antibiotics, and nonessential amino acids. Cells were grown at 37 °C, in a humidified atmosphere, with 5% CO2. For experiments, cells were seeded in 200 μL of complete in each well of a 96-well microtiter plate. After 24 h, compounds were added at 5, 10, 25, and 50 μM for 72 h in sextuplicate. MTT was added (0.5 mg/mL), incubated for 4 h at 37 °C, and dissolved in 200 μL of isopropyl alcohol. Absorbance was measured at 570 nm (ELISA reader, DASIT), and cell viability was calculated as viability=(ODoftreatedcells/ODofcontrolcells)×100

Series [5] is described as follows: MTT cytotoxicity in RPE cells. The note with it: human, retinal pigment epithelial (RPE) cells; for viability at 72 h, 5 µM / viability at 72 h, 10 µM / viability at 72 h, 25 µM / viability at 72 h, 50 µM: read-out: percentage of viability, 72 h; for IC50 at 72 h: read-out: IC50 (cell viability). The series is classed as cell-based. Here is the method:
as §1, §2

For series [6], the system named is S. mansoni juvenile forms. As to the kind of experiment: Speed-of-action assay in juvenile forms. Type of series: cell-based, Schistosoma mansoni. Particulars: for IC50: Schistosoma mansoni, read-out: IC50 (speed of action, juvenile forms); for Percentage of effect: juvenile forms. The text has this:
(§3) To better characterize a selection of our LSD1i in vitro, we assessed the onset of their action, defined as the time required for an observable antischistosomal effect. […] For detailed percentages of activity at each time point, refer to the Supporting Information (Tables S2 and S3 in Supporting Information).

In another series the test system is NTS. As to the kind of experiment: Speed-of-action assay in NTS. Type of series: cell-based, Schistosoma mansoni. The note with it: for Percentage of effect: NTS; for IC50: Schistosoma mansoni, read-out: IC50 (speed of action, NTS).
From the text: as §3

Series [7] concerns adult worms. As to the kind of experiment: Pairing and egg laying of adult worms. Type of series: cell-based, Schistosoma mansoni. The note with it: for eggs' number: 20 μM. Here is the method: Selected compounds 2, 15, 18, and 19 were tested on adult worms to evaluate their effects on pairing and egg laying.
The mark [8] stands for this setting: ref 3 (SI: Fioravanti et al., J Enzyme Inhib Med Chem 2022).
The mark [9] stands for this setting: ref 2 (SI: Fioravanti et al., ChemMedChem 2020).
[10] abbreviates: ref 4 (SI: Rodriguez et al., MedChemComm 2015).

Read-outs that look alike come from different tables or passages of the source. Some results are limits rather than exact numbers.

The term IC50 denotes the point on the concentration scale where inhibition reaches its midpoint. Take `NC1CC1c1ccc(NC(=O)c2ccc(-c3ccsc3)cc2)cc1` (stereo not drawn) [Compound 4]: the “Percentage of reduction of NTS viability, 72 h” value (“Percentage of reduction … 72 h” for short) in series [1] (10 μM) was 43.1 ± 0.9%; in series [1] (20 μM), 79.17 ± 0.0%. Further, the half-inhibitory concentration (IC50) in series [1] was > 10 µM; in series [2] (setting [8]) it was 0.34 ± 0.11 µM; in the series with adult worms [3], > 10 µM.

As for `NC1CC1c1ccc(NC(=O)C(Cc2c[nH]c3ccccc23)NC(=O)OCc2ccccc2)cc1` (stereo not drawn) [Compound 12], the results for the “Percentage of reduction … 72 h” value in series [1] (10 μM) and in series [1] (20 μM) were 41.4 ± 1.7% and 50.0 ± 0.0%, respectively. In addition, the values for the IC50 in series [1] and in series [2] (setting [9]) were > 10 µM and 0.19 ± 0.03 µM, respectively.

For the molecule `NC1CC1c1ccc(NC(=O)c2ccn(C(=O)OCc3ccccc3)c2)cc1` (stereo not drawn) [Compound 6], the “Percentage of reduction … 72 h” value is reported as 40.0 ± 2.0% in series [1] (10 μM) and 100 ± 0.0% in series [1] (20 μM). Further, the 50% inhibitory concentration (IC50) in series [1] was > 10 µM; in series [2] (setting [10]), 0.05 ± 0.004 µM; with adult worms [3], > 20 µM.

The viability is the share of living cells, or the viability signal relative to a control. On to `CN1CCN(c2cc(C(=O)Nc3ccc(C4CC4N)cc3)ccc2NC(=O)OCc2ccccc2)CC1` (stereo not drawn) [Compound 5], for which the viability at 72 h, 5 µM turned out to be 75 ± 7% in series [4] and 63 ± 33% in series [5]. For the same molecule, the values for the viability at 72 h, 10 µM in series [4] and in series [5] were 59 ± 5% and 72 ± 18%, respectively. For the same molecule, the viability at 72 h, 25 µM in series [4] is 58 ± 2%; in series [5] it was 82 ± 11%. The viability at 72 h, 50 µM in series [4] was 39 ± 4%; in series [5] it was 57 ± 10%. Further, the concentration for half-maximal inhibition (IC50) at 72 h in series [4] was 24.3 µM; in series [5], 55.8 µM. The “Percentage of reduction … 72 h” value in series [1] (1 μM) was determined as 18.0 ± 1.0%; in series [1] (10 μM) it was 100 ± 0.0%; in series [1] (20 μM), 100 ± 0.0%. Also, the figures for the concentration for half-maximal inhibition (IC50) (in series [1]; in series [2] (setting [9]); in the series with adult worms [3]) were 1.35 µM, 0.09 ± 0.01 µM and 2.23 µM, respectively.

For `NC1CC1c1ccc(NC(=O)C(Cc2ccccc2)NC(=O)OCc2ccccc2)cc1` (stereo not drawn) [Compound 11, benzyl (1-((4-(2-aminocyclopropyl)phenyl)amino)-1-oxo-3-phenylpropan-2-yl)carbamate], the IC50 in the series on adult worms [3] is > 20 µM.

For `NC1CC1c1ccc(NC(=O)Cc2cccc3ccccc23)cc1` (stereo not drawn) [Compound 8], the “Percentage of reduction … 72 h” value came to 46.5 ± 2.6% in series [1] (10 μM) and 50.0 ± 0.0% in series [1] (20 μM). The half-maximal inhibitory concentration (IC50) was > 10 µM in series [1] and […] in series [2] (setting [9]).

With `NC1CC1c1ccc(NC(=O)c2ccc(-c3ccco3)cc2)cc1` (stereo not drawn) [Compound 3], the results for the “Percentage of reduction … 72 h” value in series [1] (10 μM) and in series [1] (20 μM) were 36.2 ± 0.9% and 37.50 ± 0.0%, respectively. The IC50 in series [1] was > 20 µM; in series [2] (setting [8]), 2 µM.

As to `NC1CC1c1ccc(NC(=O)CNC(=O)OCc2ccccc2)cc1` (stereo not drawn) [Compound 9], the figures for the “Percentage of reduction … 72 h” value in series [1] (10 μM) and in series [1] (20 μM) were 37.93 ± 1.7% and 41.7 ± 4.2%, respectively. For the same molecule, the figures for the concentration for half-maximal inhibition (IC50) in series [1] and in series [2] (setting [10]) were > 20 µM and 0.3 ± 0.03 µM, respectively.

For the molecule `NC1CC1c1ccc(NC(=O)C(Cc2csc3ccccc23)NC(=O)OCc2ccccc2)cc1` (stereo not drawn) [Compound 13], the entries for the “Percentage of reduction … 72 h” value in series [1] (10 μM) and in series [1] (20 μM) were 36.2 ± 0.9% and 50.0 ± 4.2%, respectively. The half-inhibitory concentration (IC50) in series [1] is > 10 µM; in series [2] (setting [9]) it was 0.08 ± 0.01 µM.

In the case of `NC1CC1c1ccc(NC(=O)c2ccc(-c3ccccc3)cc2)cc1` (stereo not drawn) [Compound 2], the figures for the viability at 72 h, 5 µM in series [4] and in series [5] were 29 ± 2% and 95 ± 9%, respectively. Moreover, the viability at 72 h, 10 µM in series [4] stood at 26 ± 3%; in series [5], 82 ± 11%. The viability at 72 h, 25 µM in series [4] is 13 ± 3%; in series [5] it was 87 ± 39%. Also, the viability at 72 h, 50 µM was determined as 10 ± 2% in series [4] and 49 ± 9% in series [5]. Also, the half-inhibitory concentration (IC50) at 72 h amounted to 5.9 µM in series [4] and 68.9 µM in series [5]. For the same molecule, the “Percentage of reduction … 72 h” value worked out at 43.7 ± 2.1% in series [1] (0.1 μM), 56.9 ± 0.9% in series [1] (1 μM), 98 ± 1.0% in series [1] (10 μM) and 100 ± 0.0% in series [1] (20 μM). Besides, the IC50 in series [1] was 0.26 µM; in series [2] (setting [9]) it was 0.05 ± 0.01 µM; in series [6] (4 h), > 20 µM; in series [6] (24 h), 16.2 µM; in series [6] (48 h), > 20 µM; in series [6] (72 h), 5.9 µM. The concentration for half-maximal inhibition (IC50) is > 20 µM in the series on NTS (4 h); 5 µM in the series with NTS (24 h); 4 µM in the series on NTS (48 h); 2.3 µM with NTS (72 h); > 10 µM in the series with adult worms [3]. Further, the Percentage of effect was found to be 20% in series [6] (4 h, 1 μM); 23.33% in series [6] (4 h, 10 μM); 43.64% in series [6] (4 h, 20 μM); 24.14% in series [6] (24 h, 1 μM); 37.93% in series [6] (24 h, 10 μM); 57.69% in series [6] (24 h, 20 μM). Further, the Percentage of effect was determined as 32.69% in series [6] (48 h, 1 μM); 36.45% in series [6] (48 h, 10 μM); 56.25% in series [6] (48 h, 20 μM); 39% in series [6] (72 h, 1 μM); 39.11% in series [6] (72 h, 10 μM); 70.83% in series [6] (72 h, 20 μM). Besides, the Percentage of effect in the series on NTS (4 h, 10 μM) was found to be 30.77%; in the series on NTS (4 h, 20 μM), 38.46%; with NTS (24 h, 10 μM), 78.57%; with NTS (24 h, 20 μM) it was 82.14%; in the series on NTS (48 h, 10 μM), 87.76%; in the series with NTS (48 h, 20 μM) it was 93.88%. In addition, the Percentage of effect with NTS (72 h, 10 μM) turned out to be 89.80%; in the series with NTS (72 h, 20 μM), 100%. Also, the “eggs' number” value in the series with adult worms [7] (4 h) was 0; with adult worms [7] (8 h), 0; in the series on adult worms [7] (24 h), 0; in the series with adult worms [7] (48 h), 0; in the series with adult worms [7] (72 h), 6. Moreover, the “effect on worm pairing” value with adult worms [7] (adult worms) was “no impact on worm pairing”.

For `NC1CC1c1ccc(NC(=O)c2cc3ccccc3n2CC(=O)Nc2ccccc2)cc1` (stereo not drawn) [Compound 7], the “Percentage of reduction … 72 h” value came to 37.9 ± 0.0% in series [1] (10 μM) and 66.7 ± 4.2% in series [1] (20 μM). For the same molecule, the IC50 in series [1] was > 10 µM; in series [2] (setting [10]), 0.09 ± 0.01 µM; in the series on adult worms [3] it was > 20 µM.

Turning to `NC1CC1c1ccc(NC(=O)c2ccc(O)c3ncccc23)cc1` (stereo not drawn) [Compound 1], the “Percentage of reduction … 72 h” value was found to be 37.9 ± 0.0% in series [1] (10 μM) and 45.8 ± 4.2% in series [1] (20 μM). The 50% inhibitory concentration (IC50) in series [1] was > 20 µM; in series [2] (ref 1 (SI: Rotili et al., J Med Chem 2014)), < 1 µM.

On to `NC1CC1c1ccc(NC(=O)C2CCCN2C(=O)OCc2ccccc2)cc1` (stereo not drawn) [Compound 10], for which the “Percentage of reduction … 72 h” value is given as 32.8 ± 0.9% in series [1] (10 μM) and 37.5 ± 4.2% in series [1] (20 μM). The values for the 50% inhibitory concentration (IC50) in series [1] and in series [2] (setting [10]) were > 20 µM and 0.06 ± 0.01 µM, respectively.

The values are drawn from publication PMC12340956, “Tranylcypromine-Based LSD1 Inhibitors as Useful Agents to Reduce Viability of” (ACS Infectious Diseases, 2025).
